Data as given in US10428063B2 (Bayer Pharma Aktiengesellschaft, priority 2015, dated 2019).

Target: catalytic domain of human Bub1 (amino acids 704-1085) (Homo sapiens (Human), UniProt O43683)
Assay: Bub1 kinase assay (TR-FRET)
Format: biochemical
Details: 10 μM ATP, 1 μM peptide substrate, recombinant catalytic domain of human Bub1, read-out: Bub1 kinase assay median IC50
Source text: Bub1-inhibitory activities of compounds described in the present invention were quantified using a time-resolved fluorescence energy transfer (TR-FRET) kinase assay which measures phosphorylation of the synthetic peptide Biotin-Ahx-VLLPKKSFAEPG (C-terminus in amide form), purchased from e.g. Biosyntan (Berlin, Germany) by the (recombinant) catalytic domain of human Bub1 (amino acids 704-1085), expressed in Hi5 insect cells with an N-terminal His6-tag and purified by affinity- (Ni-NTA) and size exclusion chromatography.
In a typical assay 11 different concentrations of each compound (0.1 nM, 0.33 nM, 1.1 nM, 3.8 nM, 13 nM, 44 nM, 0.15 μM, 0.51 μM, 1.7 μM, 5.9 μM and 20 μM) were tested in duplicate within the same microtiter plate. To this end, 100-fold concentrated compound solutions (in DMSO) were previously prepared by serial dilution (1:3.4) of 2 mM stocks in a clear low volume 384-well source microtiter plate (Greiner Bio-One, Frickenhausen, Germany), from which 50 nl of compounds were transferred into a black low volume test microtiter plate from the same supplier. Subsequently, 2 μl of Bub1 (the final concentration of Bub1 was adjusted depending on the activity of the enzyme lot in order to be within the linear dynamic range of the assay: typically ˜200 ng/ml were used) in aqueous assay buffer [50 mM Tris/HCl pH 7.5, 10 mM magnesium chloride (MgCl2), 200 mM potassium chloride (KCl), 1.0 mM dithiothreitol (DTT), 0.1 mM sodium ortho-vanadate, 1% (v/v) glycerol, 0.01% (w/v) bovine serum albumine (BSA), 0.005% (v/v) Trition X-100 (Sigma), 1× Complete EDTA-free protease inhibitor mixture (Roche)] were added to the compounds in the test plate and the mixture was incubated for 15 min at 22° C. to allow pre-equilibration of the putative enzyme-inhibitor complexes before the start of the kinase reaction, which was initiated by the addition of 3 μl 1.67-fold concentrated solution (in assay buffer) of adenosine-tri-phosphate (ATP, 10 μM final concentration) and peptide substrate (1 μM final concentration). The resulting mixture (5 μl final volume) was incubated at 22° C. during 60 min., and the reaction was stopped by the addition of 5 μl of an aqueous EDTA-solution (50 mM EDTA, in 100 mM HEPES pH 7.5 and 0.2% (w/v) bovine serum albumin) which also contained the TR-FRET detection reagents (0.2 μM streptavidin-XL665 [Cisbio Bioassays, Codolet, France] and 1 nM anti-phosho-Serine antibody [Merck Millipore, cat. #35-002] and 0.4 nM LANCE EU-W1024 labeled anti-mouse IgG antibody [Perkin-Elmer, product no. AD0077, alternatively a Terbium-cryptate-labeled anti-mouse IgG antibody from Cisbio Bioassays can be used]). The stopped reaction mixture was further incubated 1 h at 22° C. in order to allow the formation of complexes between peptides and detection reagents. Subsequently, the amount of product was evaluated by measurement of the resonance energy transfer from the Eu-chelate-antibody complex recognizing the Phosphoserine residue to the streptavidin-XL665 bound to the biotin moiety of the peptide. To this end, the fluorescence emissions at 620 nm and 665 nm after excitation at 330-350 nm were measured in a TR-FRET plate reader, e.g. a Rubystar or Pherastar (both from BMG Labtechnologies, Offenburg, Germany) or a Viewlux (Perkin-Elmer) and the ratio of the emissions (665 nm/622 nm) was taken as indicator for the amount of phosphorylated substrate. The data were normalised using two sets of control wells for high- (=enzyme reaction without inhibitor=0%=Minimum inhibition) and low- (=all assay components without enzyme=100%=Maximum inhibition) Bub1 activity. IC50 values were calculated by fitting the normalized inhibition data to a 4-parameter logistic equation (Minimum, Maximum, IC50, Hill; Y=Max+(Min−Max)/(1+(X/IC50)Hill)).

Chain of catalytic domain of human Bub1 (amino acids 704-1085) (O43683 704-1085): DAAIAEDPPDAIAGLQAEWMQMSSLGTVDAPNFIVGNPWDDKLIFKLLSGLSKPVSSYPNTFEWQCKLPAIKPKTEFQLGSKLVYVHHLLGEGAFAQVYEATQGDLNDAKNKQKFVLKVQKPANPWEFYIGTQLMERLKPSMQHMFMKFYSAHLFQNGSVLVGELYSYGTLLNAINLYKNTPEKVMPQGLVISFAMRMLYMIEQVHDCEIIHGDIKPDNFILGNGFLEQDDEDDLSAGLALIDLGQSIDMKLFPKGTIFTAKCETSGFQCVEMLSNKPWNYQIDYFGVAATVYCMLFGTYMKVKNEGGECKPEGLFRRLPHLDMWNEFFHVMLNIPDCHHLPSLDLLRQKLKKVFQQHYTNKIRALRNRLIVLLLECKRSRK

IC50 [nM]	SMILES
136	O=C1NCCc2[nH]c(-c3ccncc3OCC(F)F)c(Nc3ccc(F)c(F)c3)c21 [Example 43, 2-[3-(2,2-difluoroethoxy)pyridin-4-yl]-3-[(3,4-difluorophenyl)amino]-1,5,6,7-tetrahydro-4H-pyrrolo[3,2-c]pyridin-4-one]
28	COCCOc1cnccc1-c1[nH]c2c(c1Nc1ccc(F)c(F)c1)C(=O)NCC2 [Example 45, 3-[(3,4-difluorophenyl)amino]-2-[3-(2-methoxyethoxy)pyridin-4-yl]-1,5,6,7-tetrahydro-4H-pyrrolo[3,2-c]pyridin-4-one]
32.8	COCCOc1cnccc1-c1[nH]c2c(c1Nc1ccc(F)cc1)C(=O)NCC2 [Example 46, 3-[(4-fluorophenyl)amino]-2-[3-(2-methoxyethoxy)pyridin-4-yl]-1,5,6,7-tetrahydro-4H-pyrrolo[3,2-c]pyridin-4-one]
19.4	COCCOc1cnccc1-c1[nH]c2c(c1Nc1cccc(F)c1)C(=O)NCC2 [Example 47, 3-[(3-fluorophenyl)amino]-2-[3-(2-methoxyethoxy)pyridin-4-yl]-1,5,6,7-tetrahydro-4H-pyrrolo[3,2-c]pyridin-4-one]
